Assay results taken from US20170307595A1, “METHODS AND DEVICES TO STUDY METABOLISM” (The General Hospital Corporation, priority 2014, published 2017).

Legend:
[1] = cited from earlier work; for Cmax: oral uptake of tegafur-uracil (UFT)
rat primary hepatocytes [2] = experiment: Mass spectrometry of drug metabolism in single chamber device with hepatocytes alone; details: from tegafur+uracil
From the text: (§2) Tegafur, 5-FU, and Uracil concentrations in media were quantified using an LC/MS-MS 3200 QTRAP Hybrid Triple Quadrupole Linear Ion Trap mass spectrometer (AB SCIEX, Foster City, Calif.) coupled to a 1200 Series Binary LC System (Agilent Technologies, Santa Clara, Calif.). A standard solution of each analyte was directly infused into the mass spectrometer, which was operating under negative mode with the following settings: Curtain gas (CUR) at 30.0, collision gas (CAD) at 5, IonSpray Voltage (IS) at −4500.0, the temperature (TEM) of the turbo gas in the TurbolonSpray at 400° C. and both Ion Source Gases (GS1 and GS2) at 60.0. Using Analyst software (Version 1.5, AB Sciex), a ‘Compound Optimization’ routine was performed to identify multiple reaction monitoring (MRM) precursor/product ion transition pairs for each analyte that maximizes peak intensity. The tunable MS-specific parameters for the optimization were the declustering potential (DP), the entrance potential (EP), the collision energy (CE), as well as the collision cell exit potential (CXP).
(§3) MS data acquisition for each sample was achieved by injecting 10 μL, of media through a liquid chromatographic (LC) separation phase followed by simultaneous detection of all three MRM transitions, each with a dwell time of 500 ms. The LC method utilized a Synergy Hydro-RP (reverse phase) column (150 mm×2 mm inner 4 μm 80 Å particles; Phenomenex, Torrance, Calif.), which was kept at ambient temperature. The aqueous mobile phase A was HPLC grade water with 0.1% formic acid and the organic phase B was HPLC grade methanol with 0.1% formic acid. The elution gradient was set as: 0 minutes-3% B, 3 minutes-3% B, 12 minutes-95% B, 15 minutes-95% B, 18 minutes-3% B, and 25 minutes-3% B.

Rat hepatocytes = experiment: MTT toxicity experiment in 96-well plates, rat hepatocytes; assay type: cell-based
Procedure: (§1) Toxicity experiments were performed in 96-well plates. Briefly, 96-well plates were coated with 50 μg/mL fibronectin for 1 hour at 37° C. Freshly isolated rat hepatocytes and MCF-7 cells were seeded at 50,000 cells/well in 100 μL of media and incubated overnight at 37° C., 10% CO2. Hepatocytes were seeded in hepatocyte maintenance media while MCF-7 cells were seeded in DMEM. Media was replaced and cells were exposed to tegafur or 5-FU+Uracil in Williams E media at 37° C., 10% CO2. Uracil concentration was maintained at 100 μM, while 5-FU concentration varied. After 24 hours of exposure, media were removed and cells were incubated with 0.5 mg/mL MTT reagent for 2 hours. Media were removed from the wells and 100 μL DMSO was added to each well and mixed on a shaker for 10 minutes. The absorbance was measured at 570 nm and IC-50 values were obtained using Sigmaplot software with a sigmoidal 4-parameter fit.

MCF-7 cells = experiment: MTT toxicity experiment in 96-well plates, MCF-7; assay type: cell-based, human
Procedure: as §1

[3] = tested on: MCF-7 cells co-cultured with rat primary hepatocytes; experiment: LDH release, hepatocyte/MCF-7 co-culture in two-chamber microfluidic device; assay type: cell-based, human; details: MCF-7 exposure to 5-FU produced by metabolic conversion of tegafur, 24 hours
From the text: Rat primary hepatocytes and human breast cancer cells (MCF-7) were co-cultured in the device of Example 1 to create a hepatocyte-cancer model for drug screening. In the two-chamber device, intercellular communication between hepatocytes and cancer cells is achieved without any flow within the devices. In the two-chamber device, both cell types were independently seeded into their respective chambers in the device using inlet ports on fibronectin-coated devices. Rat primary hepatocytes and MCF-7 cells were seeded into the first (bottom) and second (top) chambers, respectively. Control monocultures were seeded in a single chamber device. The co-culture model created provides a microenvironment with cells cultured in close proximity and relatively small volume. Co-culture of hepatocytes and MCF-7 cells was compared in 12-well plates against a two-chamber device. […]
LDH in the supernatant was evaluated using CytoTox 96 Non-Radioactive Cytotoxicity Assay (Promega Cat No. G1780). […]
At the end of incubation, 50 μL stop solution was added and absorbance measured at 490 nm.
LDH from culture supernatant is normalized as LDH from cultures exposed to 100 μM tegafur+100 μM uracil to LDH from cultures exposed to vehicle control. […] Percentage cell death was calculated as LDH in media/LDH in 10,000 MCF-7 cells.

rat primary hepatocytes [4] = details: 24 h, 100 μM
From the text: as §2, §3

[5] = 100 μM, inferred from IC-50 values

SMILES | half-life in circulation in the human body [1] | fraction of 5-FU produced cleared by DPD activity ([1]; human) | Cmax ([1]; human) | temporal profile of 5-FU production (rat primary hepatocytes [2]) | toxicity to hepatocytes at 100 μM (Rat hepatocytes; [5]) | IC50 (Rat hepatocytes; Hepatocyte, rat hepatocytes, 24 hours exposure, MTT, uracil 100 μM where present) | toxicity to MCF-7 cells at 100 μM (MCF-7 cells; [5]) | IC50 (MCF-7 cells; Homo sapiens, MCF7, MCF-7, 24 hours exposure, MTT, uracil 100 μM where present) | MCF-7 cell death (LDH in media/LDH in 10,000 MCF-7 cells) [3] | decrease of concentration within the media (rat primary hepatocytes [4])
O=c1[nH]cc(F)c(=O)[nH]1 [5-FU, 5-fluorouracil] | 30 min | ~80% | 0.847 µM | increase in production up to 8 hours and a subsequent decrease |  |  |  |  |  | 
O=c1[nH]c(=O)n(C2CCCO2)cc1F (stereo not drawn) [Tegafur] |  |  | 31.2 µM |  | not toxic | > 1200 µM | not toxic | 340 µM | 12.4±1.6% | ~75%
O=c1cc[nH]c(=O)[nH]1 [uracil, Uracil] |  |  |  |  |  |  |  |  |  | ~75%
